Where a name gives a salt, the structure may show the parent alone. Read-outs that look alike come from different tables or passages of the source.
Key:
Campylobacter jejuni [1] = assay: Qualitative broth microdilution assay of ultrafiltration and HPLC fractions; format: cell-based; details: C18 reverse phase HPLC, 5–80% ACN gradient
Protocol: (§1) A broth microdilution method in 96 well plates was used to obtain qualitative and quantitative measures of antibacterial activity. Qualitatively, 50 μl samples of ESP were added to 50 μl suspensions of Campylobacter jejuni (containing about 5×10^5 cfu, as determined by standard serial dilution and plating) in 96 well plates. Plates were evaluated for growth as indicated by the presence of either turbidity or pellet of bacterial cells in the bottoms of U-shaped wells after 48 hr incubation.
Ultrafiltration. Ultrafiltration methods were used to nominally size fractionate ESP for an approximate determination of the molecular weight of the antibacterial agent(s). AMICON stirred cells under pressurized nitrogen gas were used to separate ESP into fractions above (retentate) and below (filtrate) 30,000 MW with a Millipore YM30 membrane (Millipore) and fractions above (retentate) and below (filtrate) 10,000 MW with a Millipore YM10 membrane. Prior to bioassay, the concentrated retentate fraction was returned to its original volume in RPMI-1640 media to match the volume of the filtrate so that comparisons of relative activity could be made without distortions due to volume differences. […]
High performance liquid chromatography. […] Absorbance of the eluate was monitored at 214 nm, and fractions were collected manually as peaks were detected. […]

Campylobacter jejuni [2] = assay: Heat stability of antibiotics (boiling, then qualitative broth microdilution assay); format: cell-based; details: for inactivation of antibiotic by heat treatment: boiling
Protocol: as §1, with “incubation. […] The size of the drug was also taken into consideration. Additionally, an experiment to assess the heat stability of the antibiotics was performed.” for “incubation.”

[3] = n-octanol/water partition coefficient (log PC) of antibiotics; format: physicochemical; details: in parentheses beside log PC
Protocol: Consideration of CAP contamination. […] Using the worst-case scenario, the predicted maximum amount of CAP absorbed and how much would be released into the medium if the whipworms dissolved (i.e., released 100%) was estimated. […] It was assumed that the aggregate whipworm volume of these eccentrically shaped nematodes occupied 4% of the incubation well volume (4 whipworms/ml at about 10 μl/whipworm).

[4] = compiled from a drug database at Upjohn; cited from earlier work

Row | Antibacterial activity after boiling (Campylobacter jejuni [2]) | inactivation of antibiotic by heat treatment (Campylobacter jejuni [2]) | SMILES | antibacterial activity of HPLC fractions (Campylobacter jejuni [1]) | Antibacterial activity after boiling (Campylobacter jejuni [2]; antibiotics (133 concentration) boiled for 10 minutes) | Concentrating factor [3] | log PC (n-octanol/water partition coefficient) [4]
1 | + | not heat-inactivated | O=C(N[C@H](CO)[C@H](O)c1ccc([N+](=O)[O-])cc1)C(Cl)Cl [Chloramphenicol, chloramphenicol] | one fraction with antibacterial activity |  |  | 
2 | + | boiling did not inactivate | [H]/N=C(/N)N[C@H]1[C@H](O)[C@@H](O)[C@H](O[C@@H]2O[C@@H](C)[C@](O)(C=O)[C@H]2O[C@@H]2O[C@@H](CO)[C@H](O)[C@@H](O)[C@@H]2NC)[C@@H](N/C(N)=N\[H])[C@@H]1O [Streptomycin sulfate] |  |  |  | −9.53

Row | SMILES | Antibacterial activity after boiling (Campylobacter jejuni [2]) | inactivation of antibiotic by heat treatment (Campylobacter jejuni [2]) | antibacterial activity of HPLC fractions (Campylobacter jejuni [1]) | Antibacterial activity after boiling (Campylobacter jejuni [2]; antibiotics (133 concentration) boiled for 10 minutes) | Concentrating factor [3] | log PC (n-octanol/water partition coefficient) [4]
3 | CC1(C)S[C@@H]2[C@H](NC(=O)Cc3ccccc3)C(=O)N2[C@H]1C(=O)O [Penicillin G] |  | inactivated by heat treatment |  | − | (71×) | 
